According to US5688787A, “Substituted β-lactam compounds useful as hypochlesterolemic agents and processes for the preparation thereof” (priority 1996, dated 1997):
Read-outs that look alike come from different tables or passages of the source.

System: Hyperlipidemic Hamster
Assay: In Vivo Assay of Hypolipidemic Agents Using the Hyperlipidemic Hamster
Conditions: 7 days, percent change versus control, negative = lowering; for % Reduction (in vivo) Cholest. Esters / % Reduction (in vivo) Serum Cholest. / change in vivo at 50 mg/kg: 50 mg/kg once daily oral; for change in vivo at 50 mg/kg / change in vivo at 10 mg/kg / change in vivo at 25 mg/kg / change in vivo at 3 mg/kg: Mesocricetus auratus, po, 168 h; for change in vivo at 10 mg/kg: 10 mg/kg once daily oral; for change in vivo at 25 mg/kg: 25 mg/kg once daily oral; for change in vivo at 3 mg/kg: 3 mg/kg once daily oral
Experimental: In Vivo Assay of Hypolipidemic Agents Using the Hyperlipidemic Hamster
Hamsters are separated into groups of six and given a controlled cholesterol diet (Purina Chow #5001 containing 0.5% cholesterol) for seven days. Diet consumption is monitored to determine dietary cholesterol exposure in the face of test compounds. The animals are dosed with the test compound once daily beginning with the initiation of diet. Dosing is by oral gavage of 0.2mL of corn oil alone (control group) or solution (or suspension) of test compound in corn oil. All animals roodbund or in poor physical condition are euthanized. After seven days, the animals are anesthetized by IM injection of ketamine and sacrificed by decapitation. Blood is collected into vacutainer tubes containing EDTA for plasma lipid analysis and the liver excised for tissue lipid analysis. Data is reported as percent reduction of lipid versus control.
Using the test procedures described above, the following in vitro and in vivo data were obtained for the preferred compounds, which are referred to in the following table by the corresponding example numbers. For the in vitro ACAT data, negative percent inhibition denotes apparent stimulation,while positive numbers denote inhibition. For the in vivo results, data is reported as percent change versus control, therefore, negative numbers indicate a positive lipid-lowering effect.

[1] = read-out: % Reduction (in vivo) Cholest. Esters
[2] = read-out: % Reduction (in vivo) Serum Cholest.

Row | Structure (SMILES) | change in vivo at 50 mg/kg [1] [%] | change in vivo at 50 mg/kg [2] [%] | other results
1 | COc1ccc([C@@H]2[C@@H](CCCc3ccccc3)C(=O)N2c2ccc(OC)cc2)cc1 (relative stereo) [Example 5W] |  |  | % Reduction (in vivo) Cholest. Esters: -19%; % Reduction (in vivo) Serum Cholest.: 0%
2 | COc1ccc([C@@H]2[C@@H](CCCCCCc3ccccc3)C(=O)N2c2ccc(OC)cc2)cc1 (relative stereo) [Example 5Y] | 0 | -29 | 
3 | COc1ccc([C@@H]2[C@@H](OCCc3ccccc3)C(=O)N2c2ccc(OC)cc2)cc1 (relative stereo) [Example 5Z] | 0 | -16 | 
4 | COc1ccc([C@@H]2[C@@H](CCCc3ccccc3)C(=O)N2c2ccc(OC)cc2)cc1 (relative stereo) [Example 5] |  |  | % Reduction (in vivo) Cholest. Esters: -77.5%; % Reduction (in vivo) Serum Cholest.: -29%; change in vivo at 10 mg/kg [1]: -60%; change in vivo at 10 mg/kg [2]: -21%; change in vivo at 25 mg/kg [1]: -72%; change in vivo at 25 mg/kg [2]: -20%
5 | COc1ccc([C@@H]2[C@@H](CCCc3ccccc3)C(=O)N2c2ccc(I)cc2)cc1 (relative stereo) [Example 7AA] | -42 | -10 | 
6 | CCCCCCCCCC[C@H]1C(=O)N(c2ccc(OC)cc2)[C@@H]1c1ccc(OC)cc1 (relative stereo) [Example 7AG] | -15 | 0 | 
7 | COc1ccc([C@@H]2[C@@H](/C=C\Cc3ccccc3)C(=O)N2c2ccc(OC)cc2)cc1 (relative stereo) [Example 7AI] | -95 | -63 | change in vivo at 3 mg/kg [1]: -46%; change in vivo at 3 mg/kg [2]: -11%; change in vivo at 10 mg/kg [1]: -73%; change in vivo at 10 mg/kg [2]: -20%
8 | COc1ccc([C@@H]2[C@@H](/C=C/Cc3ccccc3)C(=O)N2c2ccc(OC)cc2)cc1 (relative stereo) [Example 7AJ] | -18 | 0 | 
9 | COc1ccc([C@@H]2[C@@H](CCCC3CCCCC3)C(=O)N2c2ccc(OC)cc2)cc1 (relative stereo) [Example 7AK] | -28 | 12 | 
10 | COc1ccc([C@@H]2[C@H](Oc3ccc4ccccc4c3)C(=O)N2c2ccc(OC)cc2)cc1 (relative stereo) [Example 7AL] | 0 | -13 | 
11 | COc1ccc([C@@H]2[C@@H](CCCCCc3ccccc3)C(=O)N2c2ccc(OC)cc2)cc1 (relative stereo) [Example 7AM] | -70 | -24 | 
12 | COc1ccc([C@@H]2[C@@H](CCOc3ccc([N+](=O)[O-])cc3)C(=O)N2c2ccccc2)cc1 (relative stereo) [Example 7AN] | -42 | -12 | 
13 | COc1ccc([C@@H]2[C@@H](Cc3ccc4ccccc4c3)C(=O)N2c2ccccc2)cc1 (relative stereo) [Example 7AO] | -90 | -41 | 
14 | COc1ccc(OCC[C@H]2C(=O)N(c3ccccc3)[C@@H]2c2ccc(OC)cc2)cc1 (relative stereo) [Example 7AP] | -82 | -24 | 
15 | COc1ccc([C@@H]2[C@H](Cc3ccc4ccccc4c3)C(=O)N2c2ccccc2)cc1 (relative stereo) [Example 7AQ] | -91 | -52 | 
16 | COc1ccc([C@@H]2[C@@H](CCCc3ccccc3)C(=O)N2c2ccc3c(c2)CCC3)cc1 (relative stereo) [Example 7AR] | -88 | -32 | 
17 | COc1ccc([C@@H]2[C@@H](CCCc3ccccc3)C(=O)N2c2cccc3c2CCCC3)cc1 (relative stereo) [Example 7AS] | -20 | 0 | 
18 | COc1ccc([C@@H]2[C@@H](CCCc3ccccc3)C(=O)N2c2cnc3ccccc3c2)cc1 (relative stereo) [Example 7AT] | -32 | -10 | 
19 | CCOC(=O)c1ccc(N2C(=O)[C@H](CCCc3ccccc3)[C@H]2c2ccc(OC)cc2)cc1 (relative stereo) [Example 7A] | -54 | -22 | 
20 | COc1ccc([C@@H]2[C@@H](CCCc3ccccc3)C(=O)N2c2cccc([N+](=O)[O-])c2)cc1 (relative stereo) [Example 7B] | -45 | -13 | 

Row | Structure (SMILES) | change in vivo at 50 mg/kg [1] [%] | change in vivo at 50 mg/kg [2] [%] | other results
21 | CCN(CC)c1ccc(N2C(=O)[C@H](CCCc3ccccc3)[C@H]2c2ccc(OC)cc2)cc1 (relative stereo) [Example 7C] | -95 | -51 | 
22 | COc1ccc([C@@H]2[C@@H](CCCc3ccccc3)C(=O)N2c2ccc(C#N)cc2)cc1 (relative stereo) [Example 7D] | -74 | -35 | 
23 | COc1ccc([C@@H]2[C@@H](CCCc3ccccc3)C(=O)N2c2cc(F)cc(F)c2)cc1 (relative stereo) [Example 7E] | -93 | -52 | 
24 | COc1ccc([C@@H]2[C@@H](CCCc3ccccc3)C(=O)N2c2ccc(OC)nc2)cc1 (relative stereo) [Example 7F] | -26 | 0 | 
25 | COC(=O)C=C(C)N[C@@H]1C(=O)N(c2ccccc2)[C@@H]1c1ccc(OC)cc1 (relative stereo) [Example 7J] | -27 | -21 | 
26 | COc1ccc([C@@H]2[C@H](N(C)CCc3ccccc3)C(=O)N2c2ccccc2)cc1 (relative stereo) [Example 7K] | -32 | 0 | 
27 | COc1ccc([C@@H]2[C@H](N3C(=O)c4ccccc4C3=O)C(=O)N2c2ccccc2)cc1 (relative stereo) [Example 7L] | 0 | 0 | 
28 | COc1ccc(N2C(=O)[C@H](CCCc3ccccc3)[C@H]2c2ccc(OC(C)C)cc2)cc1 (relative stereo) [Example 7M] | -94 | -38 | 
29 | CCOC(=O)[C@@H]1[C@H](CCCc2ccccc2)C(=O)N1c1ccc(OC)cc1 (relative stereo) [Example 7N] | 0 | -11 | 
30 | COc1ccc([C@@H]2[C@@H](CCCc3ccccc3)C(=O)N2c2ccccc2)cn1 (relative stereo) [Example 7O] | -20 | -14 | 
31 | CCCOc1ccc([C@@H]2[C@@H](CCCc3ccccc3)C(=O)N2c2ccc(OC)cc2)cc1 (relative stereo) [Example 7P] | -95 | -40 | 
32 | COc1ccc(N2C(=O)[C@H](CCCc3ccccc3)[C@H]2c2ccc(OC)c(C)c2)cc1 (relative stereo) [Example 7Q] | 0 | -16 | 
33 | COC(=O)c1ccc([C@@H]2[C@@H](CCCc3ccccc3)C(=O)N2c2ccccc2)cc1 (relative stereo) [Example 7R] | -80 | -35 | 
34 | COc1ccc(N2C(=O)[C@H](CCCc3ccccc3)[C@H]2c2ccc(OC)c(F)c2)cc1 (relative stereo) [Example 7S] | -82 | -27 | 
35 | COCOc1ccc([C@@H]2[C@@H](CCCc3ccccc3)C(=O)N2c2ccccc2)cc1 (relative stereo) [Example 7T] | -93 | -49 | 
36 | COc1ccc(N2C(=O)[C@H](CCCc3ccccc3)[C@H]2c2ccc(N(C)C)cc2)cc1 (relative stereo) [Example 7U] | -60 | -29 | 
37 | COc1ccc(C(=O)[C@@H]2[C@@H](CCCc3ccccc3)C(=O)N2c2ccc(OC)cc2)cc1 (relative stereo) [Example 7V] | 0 | 0 | 
38 | COc1ccc(C(=O)[C@@H]2[C@H](CCCc3ccccc3)C(=O)N2c2ccc(OC)cc2)cc1 (relative stereo) [Example 7W] | 0 | 12 | 
39 | COc1ccc(N2C(=O)[C@H](CCCc3ccccc3)[C@H]2c2ccc(OC)cc2OC)cc1 (relative stereo) [Example 7X] | -78 | -26 | 
40 | CCOc1ccc([C@@H]2[C@@H](CCCc3ccccc3)C(=O)N2c2ccccc2)cc1 (relative stereo) [Example 7Y] | -94 | -53 | change in vivo at 3 mg/kg [1]: -55%; change in vivo at 3 mg/kg [2]: -22%; change in vivo at 10 mg/kg [1]: -79%; change in vivo at 10 mg/kg [2]: -27%
